Measured values taken from PMC4457528, “Identification of Novel Small Molecule Inhibitors of Oncogenic RET Kinase” (PLoS ONE, 2015).
Read-outs that look alike come from different tables or passages of the source.

Legend:
Experiment in all cases: KinomeScan kinase panel, single concentration 10 µM
Type in all cases: binding
KinomeScan kinase panel [1] = target: T1, KinomeScan kinase panel (Homo sapiens, UniProt Q15418); conditions: 10 µM, read-out: score (%)
T1 construct: purchased DiscoveRx (KinomeScan)

KinomeScan kinase panel [2] = target: T2, KinomeScan kinase panel (Homo sapiens, UniProt Q99683); conditions: read-out: score (%)
T2 construct: purchased DiscoveRx (KinomeScan)
T2 sequence (Q99683 1-1374): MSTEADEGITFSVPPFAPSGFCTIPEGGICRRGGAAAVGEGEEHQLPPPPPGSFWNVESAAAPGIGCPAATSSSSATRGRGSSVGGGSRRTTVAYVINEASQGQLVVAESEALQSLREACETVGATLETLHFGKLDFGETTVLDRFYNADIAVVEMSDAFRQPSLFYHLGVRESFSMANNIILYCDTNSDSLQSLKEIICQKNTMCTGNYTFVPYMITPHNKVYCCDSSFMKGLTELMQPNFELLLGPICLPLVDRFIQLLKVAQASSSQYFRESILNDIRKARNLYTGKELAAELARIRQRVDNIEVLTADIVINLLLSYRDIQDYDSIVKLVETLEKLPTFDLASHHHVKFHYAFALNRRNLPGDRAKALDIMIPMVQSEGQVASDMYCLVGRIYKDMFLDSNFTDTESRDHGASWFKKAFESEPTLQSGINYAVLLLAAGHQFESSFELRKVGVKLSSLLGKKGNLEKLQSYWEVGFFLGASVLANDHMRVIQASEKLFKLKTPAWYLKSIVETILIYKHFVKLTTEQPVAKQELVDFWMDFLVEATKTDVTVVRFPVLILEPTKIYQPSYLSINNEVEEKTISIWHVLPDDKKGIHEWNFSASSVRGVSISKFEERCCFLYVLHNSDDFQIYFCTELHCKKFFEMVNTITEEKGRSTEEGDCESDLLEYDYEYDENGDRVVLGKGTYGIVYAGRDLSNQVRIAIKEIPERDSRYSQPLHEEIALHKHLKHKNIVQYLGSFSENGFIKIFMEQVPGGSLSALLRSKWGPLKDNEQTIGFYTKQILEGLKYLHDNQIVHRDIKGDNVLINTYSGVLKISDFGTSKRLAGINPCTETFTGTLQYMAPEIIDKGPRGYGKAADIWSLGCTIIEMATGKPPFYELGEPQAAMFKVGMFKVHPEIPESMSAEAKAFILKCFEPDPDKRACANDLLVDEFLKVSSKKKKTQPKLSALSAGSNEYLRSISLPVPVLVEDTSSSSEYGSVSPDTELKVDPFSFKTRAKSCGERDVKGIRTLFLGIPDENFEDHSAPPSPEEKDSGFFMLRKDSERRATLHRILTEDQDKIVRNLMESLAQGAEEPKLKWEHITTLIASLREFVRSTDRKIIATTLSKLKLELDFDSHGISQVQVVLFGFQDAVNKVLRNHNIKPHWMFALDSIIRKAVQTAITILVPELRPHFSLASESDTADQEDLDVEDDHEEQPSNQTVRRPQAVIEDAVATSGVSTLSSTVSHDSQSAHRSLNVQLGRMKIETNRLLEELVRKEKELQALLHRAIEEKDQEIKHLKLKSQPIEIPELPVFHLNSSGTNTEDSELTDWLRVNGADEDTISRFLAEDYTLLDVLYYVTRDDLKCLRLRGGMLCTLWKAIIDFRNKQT

KinomeScan kinase panel [3] = target: T3, KinomeScan kinase panel (Homo sapiens, UniProt Q16288); conditions: 10 µM, read-out: score (%)
T3 construct: purchased DiscoveRx (KinomeScan)
T3 sequence (Q16288 32-839): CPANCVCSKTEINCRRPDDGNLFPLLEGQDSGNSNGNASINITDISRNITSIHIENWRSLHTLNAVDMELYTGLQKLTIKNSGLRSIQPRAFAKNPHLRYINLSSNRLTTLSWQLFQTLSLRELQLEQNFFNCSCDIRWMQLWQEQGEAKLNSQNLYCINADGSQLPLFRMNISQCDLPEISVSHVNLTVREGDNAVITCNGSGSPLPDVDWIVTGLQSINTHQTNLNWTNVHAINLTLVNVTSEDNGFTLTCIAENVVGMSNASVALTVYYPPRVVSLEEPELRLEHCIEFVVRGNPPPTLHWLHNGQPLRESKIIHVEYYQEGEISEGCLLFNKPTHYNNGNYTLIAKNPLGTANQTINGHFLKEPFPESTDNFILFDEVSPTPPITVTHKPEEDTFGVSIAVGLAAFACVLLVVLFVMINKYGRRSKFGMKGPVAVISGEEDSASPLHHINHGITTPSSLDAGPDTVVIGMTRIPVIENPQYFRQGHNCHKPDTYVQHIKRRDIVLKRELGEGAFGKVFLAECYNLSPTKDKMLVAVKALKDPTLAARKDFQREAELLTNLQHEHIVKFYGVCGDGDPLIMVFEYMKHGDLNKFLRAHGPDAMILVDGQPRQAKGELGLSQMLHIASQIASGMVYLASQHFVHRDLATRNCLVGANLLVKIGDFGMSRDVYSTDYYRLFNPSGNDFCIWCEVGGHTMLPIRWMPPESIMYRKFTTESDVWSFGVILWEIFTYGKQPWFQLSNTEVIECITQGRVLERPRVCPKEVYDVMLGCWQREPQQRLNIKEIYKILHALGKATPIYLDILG

KinomeScan kinase panel [4] = target: T4, KinomeScan kinase panel (Homo sapiens, UniProt P42336, E545K); conditions: PIK3CA(E545K), 10 µM; read-out: score (%)
T4 construct: purchased DiscoveRx (KinomeScan)
T4 sequence (P42336 whole entry E545K): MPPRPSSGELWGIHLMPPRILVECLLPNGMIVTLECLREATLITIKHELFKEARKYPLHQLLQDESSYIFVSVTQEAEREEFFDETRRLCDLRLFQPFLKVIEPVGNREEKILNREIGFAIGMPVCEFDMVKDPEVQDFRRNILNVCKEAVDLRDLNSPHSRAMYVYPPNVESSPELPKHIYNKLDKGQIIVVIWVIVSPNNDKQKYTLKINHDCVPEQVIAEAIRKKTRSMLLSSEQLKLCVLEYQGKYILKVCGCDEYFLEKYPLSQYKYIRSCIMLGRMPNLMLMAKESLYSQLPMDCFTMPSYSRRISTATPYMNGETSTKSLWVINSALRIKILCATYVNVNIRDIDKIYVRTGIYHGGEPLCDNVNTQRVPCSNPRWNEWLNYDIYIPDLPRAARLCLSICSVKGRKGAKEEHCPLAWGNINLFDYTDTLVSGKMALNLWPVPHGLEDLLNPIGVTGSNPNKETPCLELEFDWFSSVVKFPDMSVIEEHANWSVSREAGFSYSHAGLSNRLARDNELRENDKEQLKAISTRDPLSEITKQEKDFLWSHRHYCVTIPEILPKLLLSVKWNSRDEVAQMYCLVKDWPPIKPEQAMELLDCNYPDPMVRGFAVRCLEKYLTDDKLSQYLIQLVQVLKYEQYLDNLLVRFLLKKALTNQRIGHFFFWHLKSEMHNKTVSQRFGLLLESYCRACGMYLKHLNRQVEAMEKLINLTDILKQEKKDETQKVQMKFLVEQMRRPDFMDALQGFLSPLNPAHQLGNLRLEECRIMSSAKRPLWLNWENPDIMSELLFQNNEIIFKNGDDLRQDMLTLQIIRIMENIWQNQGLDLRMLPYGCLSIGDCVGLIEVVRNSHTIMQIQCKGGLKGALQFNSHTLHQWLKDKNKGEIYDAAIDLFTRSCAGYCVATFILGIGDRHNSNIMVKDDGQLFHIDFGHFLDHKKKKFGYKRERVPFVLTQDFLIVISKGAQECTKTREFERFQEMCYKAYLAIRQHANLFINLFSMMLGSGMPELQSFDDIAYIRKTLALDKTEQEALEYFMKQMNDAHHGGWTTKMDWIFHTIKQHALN

KinomeScan kinase panel [5] = target: T5, KinomeScan kinase panel (Homo sapiens, UniProt Q06418); conditions: kinase TYRO3; 10 µM; read-out: score (%)
T5 construct: purchased DiscoveRx (KinomeScan)
T5 sequence (Q06418 41-890): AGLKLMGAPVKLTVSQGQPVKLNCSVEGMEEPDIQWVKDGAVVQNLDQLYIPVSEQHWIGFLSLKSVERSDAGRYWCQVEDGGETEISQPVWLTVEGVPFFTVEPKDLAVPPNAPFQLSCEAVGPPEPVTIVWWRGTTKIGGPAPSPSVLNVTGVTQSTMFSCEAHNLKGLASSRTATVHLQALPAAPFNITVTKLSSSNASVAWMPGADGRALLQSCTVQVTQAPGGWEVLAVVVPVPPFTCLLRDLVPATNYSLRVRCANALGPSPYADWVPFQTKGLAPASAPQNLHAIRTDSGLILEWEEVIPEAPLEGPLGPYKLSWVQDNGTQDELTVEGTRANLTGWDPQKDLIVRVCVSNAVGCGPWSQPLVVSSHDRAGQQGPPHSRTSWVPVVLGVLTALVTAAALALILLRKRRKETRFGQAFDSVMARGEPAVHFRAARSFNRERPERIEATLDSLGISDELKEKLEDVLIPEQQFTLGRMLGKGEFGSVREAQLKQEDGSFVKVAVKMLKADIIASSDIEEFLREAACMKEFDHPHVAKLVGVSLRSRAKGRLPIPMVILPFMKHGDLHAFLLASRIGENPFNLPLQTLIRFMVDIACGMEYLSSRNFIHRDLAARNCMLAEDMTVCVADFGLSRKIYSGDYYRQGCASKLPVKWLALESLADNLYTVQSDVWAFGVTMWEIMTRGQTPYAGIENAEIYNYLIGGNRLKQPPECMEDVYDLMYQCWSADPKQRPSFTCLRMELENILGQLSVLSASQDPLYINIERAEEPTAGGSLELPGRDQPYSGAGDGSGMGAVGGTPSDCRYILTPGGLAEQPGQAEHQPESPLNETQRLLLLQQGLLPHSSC

KinomeScan kinase panel [6] = target: T6, KinomeScan kinase panel (Homo sapiens, UniProt Q04759); conditions: 10 µM, read-out: score (%)
T6 construct: purchased DiscoveRx (KinomeScan)
T6 sequence (Q04759 whole entry): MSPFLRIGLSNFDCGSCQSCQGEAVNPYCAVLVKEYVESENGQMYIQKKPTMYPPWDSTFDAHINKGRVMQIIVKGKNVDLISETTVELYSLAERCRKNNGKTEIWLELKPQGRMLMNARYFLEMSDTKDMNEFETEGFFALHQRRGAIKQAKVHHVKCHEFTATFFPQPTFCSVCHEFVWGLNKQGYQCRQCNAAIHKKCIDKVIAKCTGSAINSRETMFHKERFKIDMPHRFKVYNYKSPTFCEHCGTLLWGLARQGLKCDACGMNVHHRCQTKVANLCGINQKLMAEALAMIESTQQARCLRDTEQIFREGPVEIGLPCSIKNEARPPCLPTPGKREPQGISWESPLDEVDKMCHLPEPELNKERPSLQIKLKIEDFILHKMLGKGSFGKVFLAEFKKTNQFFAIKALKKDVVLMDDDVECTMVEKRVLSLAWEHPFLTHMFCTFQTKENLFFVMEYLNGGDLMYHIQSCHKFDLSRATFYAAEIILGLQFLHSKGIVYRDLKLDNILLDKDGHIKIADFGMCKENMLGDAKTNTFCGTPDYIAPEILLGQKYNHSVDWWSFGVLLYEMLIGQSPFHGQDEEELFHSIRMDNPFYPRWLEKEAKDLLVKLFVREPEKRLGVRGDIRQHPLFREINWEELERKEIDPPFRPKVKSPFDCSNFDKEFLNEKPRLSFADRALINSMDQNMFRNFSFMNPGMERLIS

KinomeScan kinase panel [7] = target: T7, KinomeScan kinase panel (Homo sapiens, UniProt P07949, M918T); conditions: read-out: score (%)
T7 construct: purchased DiscoveRx (KinomeScan)
T7 sequence (P07949 29-1114 M918T): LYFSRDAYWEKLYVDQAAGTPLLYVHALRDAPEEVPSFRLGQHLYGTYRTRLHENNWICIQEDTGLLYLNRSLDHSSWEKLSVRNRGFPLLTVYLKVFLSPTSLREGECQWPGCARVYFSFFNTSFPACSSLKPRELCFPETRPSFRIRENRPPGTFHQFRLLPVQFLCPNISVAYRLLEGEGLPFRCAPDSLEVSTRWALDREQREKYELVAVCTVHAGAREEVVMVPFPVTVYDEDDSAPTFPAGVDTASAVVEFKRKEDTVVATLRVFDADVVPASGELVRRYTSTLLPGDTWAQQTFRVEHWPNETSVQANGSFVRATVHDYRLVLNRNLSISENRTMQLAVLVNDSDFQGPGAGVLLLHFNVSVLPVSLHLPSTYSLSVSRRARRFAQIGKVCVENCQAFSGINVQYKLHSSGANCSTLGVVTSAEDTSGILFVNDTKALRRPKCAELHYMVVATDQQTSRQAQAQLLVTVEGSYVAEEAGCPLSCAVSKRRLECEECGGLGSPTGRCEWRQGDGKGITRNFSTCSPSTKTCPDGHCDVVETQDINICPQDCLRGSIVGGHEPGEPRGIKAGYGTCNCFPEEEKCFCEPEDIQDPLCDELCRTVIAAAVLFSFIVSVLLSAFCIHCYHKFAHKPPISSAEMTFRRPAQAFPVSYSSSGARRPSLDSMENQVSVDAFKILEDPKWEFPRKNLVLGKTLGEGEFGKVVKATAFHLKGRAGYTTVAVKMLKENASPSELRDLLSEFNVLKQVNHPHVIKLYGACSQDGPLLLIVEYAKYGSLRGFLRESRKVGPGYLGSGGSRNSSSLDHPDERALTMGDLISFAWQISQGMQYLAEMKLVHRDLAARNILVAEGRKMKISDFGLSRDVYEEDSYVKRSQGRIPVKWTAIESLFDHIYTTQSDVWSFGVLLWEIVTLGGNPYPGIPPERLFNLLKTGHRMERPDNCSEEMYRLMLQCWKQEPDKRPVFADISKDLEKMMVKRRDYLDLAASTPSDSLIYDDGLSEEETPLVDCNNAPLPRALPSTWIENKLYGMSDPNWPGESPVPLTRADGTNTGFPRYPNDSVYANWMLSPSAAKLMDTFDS

KinomeScan kinase panel [8] = target: T8, KinomeScan kinase panel (Homo sapiens, UniProt P29597)
T8 construct: purchased DiscoveRx (KinomeScan)

KinomeScan kinase panel [9] = target: T9, KinomeScan kinase panel (Homo sapiens, UniProt O75676); conditions: 10 µM, read-out: score (%)
T9 construct: purchased DiscoveRx (KinomeScan)
T9 sequence (O75676 whole entry): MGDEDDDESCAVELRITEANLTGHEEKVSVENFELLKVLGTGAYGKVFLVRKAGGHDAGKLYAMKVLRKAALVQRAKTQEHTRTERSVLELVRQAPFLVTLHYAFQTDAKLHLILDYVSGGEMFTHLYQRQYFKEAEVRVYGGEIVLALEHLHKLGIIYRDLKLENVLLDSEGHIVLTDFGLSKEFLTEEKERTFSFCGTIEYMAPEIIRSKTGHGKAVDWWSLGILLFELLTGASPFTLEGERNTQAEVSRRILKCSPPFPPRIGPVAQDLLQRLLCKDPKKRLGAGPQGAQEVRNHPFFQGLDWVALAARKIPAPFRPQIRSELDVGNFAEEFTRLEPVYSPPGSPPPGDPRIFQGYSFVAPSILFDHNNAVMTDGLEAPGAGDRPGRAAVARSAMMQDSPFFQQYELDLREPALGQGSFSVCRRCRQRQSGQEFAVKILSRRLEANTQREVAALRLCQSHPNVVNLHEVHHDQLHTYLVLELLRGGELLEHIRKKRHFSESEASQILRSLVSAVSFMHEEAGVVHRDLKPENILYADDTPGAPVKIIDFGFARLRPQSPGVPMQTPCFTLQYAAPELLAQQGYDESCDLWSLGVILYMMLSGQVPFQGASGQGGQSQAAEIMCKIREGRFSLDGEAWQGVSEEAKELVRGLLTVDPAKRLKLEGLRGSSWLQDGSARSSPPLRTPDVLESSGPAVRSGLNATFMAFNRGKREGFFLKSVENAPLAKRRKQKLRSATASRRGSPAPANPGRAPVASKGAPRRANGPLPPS

[10] = kinase TYK2(JH1domain-catalytic), 10 µM
[11] = kinase RPS6KA4(Kin.Dom.1-N-terminal)
[12] = kinase RPS6KA4(Kin.Dom.2-C-terminal)

For `CCN1CCN(Cc2ccc(NC(=O)c3ccc(C)c(NC(=O)c4cncc(-c5cccs5)c4)c3)cc2C(F)(F)F)CC1` [ALW-II-41-27], the remaining binding at 10 µM (KinomeScan kinase panel [1]; RPS6KA1(Kin.Dom.1-N-terminal)) was greater than 30%, the remaining binding at 10 µM (KinomeScan kinase panel [1]; RPS6KA1(Kin.Dom.2-C-terminal)) was greater than 30% and the remaining binding at 10 µM (KinomeScan kinase panel [2]; ASK1, 10 µM) was greater than 30%. It also gave a remaining binding at 10 µM (KinomeScan kinase panel [3]; kinase TRKC) of 0.85%, a remaining binding at 10 µM (KinomeScan kinase panel [4]) greater than 30% and a remaining binding at 10 µM (KinomeScan kinase panel [5]) greater than 30%. For the same compound, the remaining binding at 10 µM (KinomeScan kinase panel [6]; PRKCQ) was 22%, the remaining binding at 10 µM (KinomeScan kinase panel [7]) was 0% and the “score (%)” value (KinomeScan kinase panel [8]) was “nb (Hits values higher than 30% were considered negative (no binding: nb))”. For the same compound, the “score (%)” value (KinomeScan kinase panel [8]; [10]) was 9.8%, the remaining binding at 10 µM (KinomeScan kinase panel [9]; [11]) was 6.3% and the remaining binding at 10 µM (KinomeScan kinase panel [9]; [12]) was greater than 30%.

Compound `CCN1CCN(Cc2ccc(NC(=O)c3ccc(C)c(/C=C/c4cnc5[nH]ccc5c4Cl)c3)cc2C(F)(F)F)CC1` [HG-6-63-01, (E)-3-(2-(4-chloro-1H-pyrrolo[2,3-b]pyridin-5-yl)vinyl)-N-(4-((4-ethylpiperazin-1-yl)methyl)-3-(trifluoromethyl)phenyl)-4-methylbenzamide] has a remaining binding at 10 µM (KinomeScan kinase panel [1]; RPS6KA1(Kin.Dom.1)) greater than 30%, a remaining binding at 10 µM (KinomeScan kinase panel [1]; RPS6KA1(Kin.Dom.2)) greater than 30% and a remaining binding at 10 µM (KinomeScan kinase panel [2]; MAP3K5, 10 µM) greater than 30%. For the same compound, the remaining binding at 10 µM (KinomeScan kinase panel [3]; TRKC) was 5.3%, the remaining binding at 10 µM (KinomeScan kinase panel [4]) was greater than 30% and the remaining binding at 10 µM (KinomeScan kinase panel [5]) was greater than 30%. The remaining binding at 10 µM (KinomeScan kinase panel [6]; PRKCQ) was greater than 30%, the remaining binding at 10 µM (KinomeScan kinase panel [7]; RET(M918T), 10 µM) was 0% and the “score (%)” value (KinomeScan kinase panel [8]; kinase TYK2(Kin.Dom.1), 10 µM) was “nb (Hits values higher than 30% were considered negative (no binding: nb))”. For the same compound, the “score (%)” value (KinomeScan kinase panel [8]; kinase TYK2(Kin.Dom.2), 10 µM) was 7%, the remaining binding at 10 µM (KinomeScan kinase panel [9]; RPS6KA4(Kin.Dom.1)) was greater than 30% and the remaining binding at 10 µM (KinomeScan kinase panel [9]; RPS6KA4(Kin.Dom.2)) was greater than 30%.

`CCN1CCN(Cc2ccc(NC(=O)c3ccc(C)c(C#Cc4cccnc4)c3)cc2C(F)(F)F)CC1` [XMD15-44] gave a remaining binding at 10 µM (KinomeScan kinase panel [1]; kinase RSK1(Kin.Dom.1-N-terminal)) of 53%, a remaining binding at 10 µM (KinomeScan kinase panel [1]; kinase RSK1(Kin.Dom.2-C-terminal)) of 7.2% and a remaining binding at 10 µM (KinomeScan kinase panel [2]; ASK1, 10 µM) greater than 30%. It also gave a remaining binding at 10 µM (KinomeScan kinase panel [3]; kinase TRKC) of 0.35%, a remaining binding at 10 µM (KinomeScan kinase panel [4]) of 85% and a remaining binding at 10 µM (KinomeScan kinase panel [5]) of 100%. For the same compound, the remaining binding at 10 µM (KinomeScan kinase panel [6]; kinase PRKCQ) was 55%, the remaining binding at 10 µM (KinomeScan kinase panel [7]; kinase RET(M918T), 10 µM) was 0% and the “score (%)” value (KinomeScan kinase panel [8]; [10]) was 4.2%. For the same compound, the “score (%)” value (KinomeScan kinase panel [8]; kinase TYK2(JH2domain-pseudokinase), 10 µM) was 99%, the remaining binding at 10 µM (KinomeScan kinase panel [9]; [11]) was 30% and the remaining binding at 10 µM (KinomeScan kinase panel [9]; [12]) was 99%.
